Measured values from patent US5576436A, “Fluorescent ligands” (Pharmaceutical Discovery Corporation, priority 1994, dated 1996).
pIC50, pKd, pKi: −log10 of the molar value. Where two headings read alike, the source gives them in different places.

Legend:
Kappa 1 = experiment: Fluorescent ligand binding, kappa1 opioid receptor; details: result in words
kappa1 opioid receptor = experiment: Radioligand ([^3 H]U69,593) binding, kappa1 opioid receptor; details: read-out: IC50 value versus radioligand binding
benzodiazepine receptors = details: cited from earlier work
Glycine = experiment: Fluorescent ligand binding, glycine receptor (strychnine-insensitive); details: Table I
Dopamine 2 [1] = experiment: Radioligand binding, dopamine 2; details: Table I; read-out: Radiolig. Kd:Ki
Dopamine 2 [2] = experiment: Fluorescent ligand binding, dopamine 2 (direct fluorescence measurement); details: Table I
NMDA [3] = experiment: Fluorescent ligand binding, NMDA receptor complex; details: Table I
Procedure: NMDA RECEPTOR COMPLEX LIGAND (spectral shift compound) (PDC 014.041)
(§1) Recommended Assay Conditions:
Incubation buffer: 5 mM Hepes/Tris (pH 7.8 at 25° C.)
Spectra: 335 nm (ex) and 515 nm (em)
(§2) 1. Reconstitution: 10.0 ml of incubation buffer
3. Incubation Time: 2 hours at 25° C.
4. Measure fluorescence intensity: 335 nm (ex) and […]

NMDA [4] = experiment: Radioligand binding, NMDA; details: Table I; read-out: Radiolig. Kd:Ki
Dopamine 1 [5] = experiment: Radioligand binding, dopamine 1; details: Table I; read-out: Radiolig. Kd:Ki
Dopamine 1 [6] = experiment: Fluorescent ligand binding, dopamine 1 (direct fluorescence measurement); details: Table I
Cannabinoid = experiment: Radioligand binding, cannabinoid receptor; details: Table I; read-out: Radiolig. Kd:Ki
Muscarinic-M1 [7] = experiment: Fluorescent ligand binding, muscarinic-M1 receptor; details: Table I
Muscarinic-M1 [8] = experiment: Radioligand binding, muscarinic-M1; details: Table I; read-out: Radiolig. Kd:Ki
Adenosine-A2a [9] = experiment: Fluorescent ligand binding, adenosine-A2a receptor; details: Table I
Procedure: Recommended Assay Conditions for ADENOSINE-A2A RECEPTOR LIGAND (PDC 018.075)
Incubation buffer: 50 mM Tris-HCL containing 10mM MgCl2, (pH 7.4 at 25° C.)
(§3) Spectra: 492 nm (ex) and 516 nm (em)
as §2
3. Incubation Time: 90 minutes at 25° C.

Adenosine-A2a [10] = experiment: Radioligand binding, adenosine-A2a; details: Table I; read-out: Radiolig. Kd:Ki
Peripheral Bzd [11] = experiment: Radioligand binding, peripheral benzodiazepine receptor; details: Table I; read-out: Radiolig. Kd:Ki
Peripheral Bzd [12] = experiment: Fluorescent ligand binding, peripheral benzodiazepine receptor; details: Table I
Procedure: PERIPHERAL BENZODIAZEPINE RECEPTOR LIGAND (PDC 018.091)
as §1
Incubation buffer: 50 Nm Tris-Citrate containing […] MgCL2 (pH 7.0 at 4° C.)
as §3, §2

[13] = density of binding of the ligand
[14] = centri., quench, read-out: Fluores. Kd
[15] = centrifugation, read-out: Fluores. Kd

CN(C(=O)Cc1cc(Cl)c(Cl)cc1NC(=O)CCCNC(=O)c1ccc2c(c1)C(=O)OC21c2ccc(O)cc2Oc2cc(O)ccc21)[C@@H]1CCCC[C@H]1N1CCCC1 [1R,2R-trans-4,5-dichloro-2-(4-fluorescein-5-carboxamido)-n-butaniado)-(N-methyl)-2-(1-pyrrolidnyl)-cyclohexyl)benzeneacetamide]
Measurement using the fluorescence assay (Kappa 1): confirmed the radioligand results
pIC50 (kappa1 opioid receptor; 1R,2R enantiomer): 5.49
pIC50 (kappa1 opioid receptor; bound in parentheses): < 6.00

Cc1nnc2n1-c1ccc(Cl)cc1C(c1ccccc1)=NC2 [Alprazolam, alprazolam]
specific to nonspecific (signal to noise) binding ratios (benzodiazepine receptors; nonequilibrium and equilibrium binding conditions): high
affinity for benzodiazepine receptors (benzodiazepine receptors; rat brain membranes, saturable and specific): low nanomolar affinity
selectivity in vitro for benzodiazepine receptors (benzodiazepine receptors; rat brain): selective and specific ligand

NCCCC(=O)O [GABA]
effect on [^3 H]alprazolam binding (benzodiazepine receptors; rat brain membranes): enhanced

O=C(NCCCCCCNc1ccc([N+](=O)[O-])c2nonc12)c1cc(O)c2c(Cl)cc(Cl)cc2n1 [PDC 002.083]
Bmax (Glycine; [13]): 14.5 pmol/mg prot.
pKd (Glycine; read-out: Fluores. Kd, centri., quench): 6.12

CCN(CC)CCNC(=O)c1cc(Cl)c(NC(=O)CCCCCNc2ccc([N+](=O)[O-])c3nonc23)cc1OC [PDC 014.036]
pKi (Dopamine 2 [1]): 7.05
pKd (Dopamine 2 [2]; [14]): 6.30
Bmax (Dopamine 2 [2]; [13]): 0.13 pmol/mg prot.

CN(C)c1cccc2c(S(=O)(=O)NCCCNC(Cc3ccccc3)c3ccccc3)cccc12 (centres unmarked) [PDC 014.041]
pKd (NMDA [3]; centri., spectral shift, read-out: Fluores. Kd): 6.00
Bmax (NMDA [3]; [13]): 1.9 pmol/mg prot.
pKi (NMDA [4]): 7.35

O=[N+]([O-])c1ccc(NCCN2CCN(CCCN3c4ccccc4Sc4ccc(C(F)(F)F)cc43)CC2)c2nonc12 [PDC 014.043]
pKi (Dopamine 1 [5]): 7.96
pKd (Dopamine 1 [6]; [14]): 6.72
Bmax (Dopamine 1 [6]; [13]): 69 pmol/mg prot.

CCCCC/C=C\C/C=C\C/C=C\C/C=C\CCCC(=O)NCCNc1ccc([N+](=O)[O-])c2nonc12 [PDC 014.063]
pKi (Cannabinoid): 7.28

CCCCC/C=C\C/C=C\C/C=C\C/C=C\CCCC(=O)NCCNS(=O)(=O)c1cccc2c(N(C)C)cccc12 [PDC 014.064]
pKi (Cannabinoid): 7.28

O=[N+]([O-])c1ccc(NCCN2CCOCC2)c2nonc12 [PDC 018.039]
pKd (Muscarinic-M1 [7]; [14]): 6.01
Bmax (Muscarinic-M1 [7]; [13]): 0.20 pmol/mg prot.
pKi (Muscarinic-M1 [8]): 5.77

CCNC(=O)[C@H]1O[C@@H](n2cnc3c(N)nc(NCCc4ccc(CCC(=O)NCCNC(=S)Nc5ccc6c(c5)C(=O)OC65c6ccc(O)cc6Oc6cc(O)ccc65)cc4)nc32)[C@H](O)[C@@H]1O [PDC 018.075]
pKd (Adenosine-A2a [9]; [15]): 7.24
Bmax (Adenosine-A2a [9]; [13]): 2.3 pmol/mg prot.
pKi (Adenosine-A2a [10]): 7.82

CCC(C)N(C)C(=O)c1cc2ccccc2c(-c2cc(NC(=O)c3ccc4c(c3)C(=O)OC43c4ccc(O)cc4Oc4cc(O)ccc43)ccc2F)n1 (centres unmarked) [PDC 018.091]
pKi (Peripheral Bzd [11]): 8.70
pKd (Peripheral Bzd [12]; [15]): 7.40
Bmax (Peripheral Bzd [12]; [13]): 2.3 pmol/mg prot.
